The source made the active and inactive calls. The calls are words filed in the database; no cut-off is given here.
Tests used:
[1] = Cytotoxicity against human OV90 cells after 72 hrs by MTS assay; type: functional, cell-based; settings: OV-90, 72 h
[2] = test system: A2780; test: Cytotoxicity against human A2780 cells after 72 hrs by MTS assay; type: functional, cell-based; settings: A2780, 72 h
[3] = test system: MCF7; test: Cytotoxicity against human MCF7 cells after 72 hrs by MTS assay; type: functional, cell-based; settings: MCF7, 72 h
[4] = test system: MDA-MB-231; test: Cytotoxicity against human MDA-MB-231 cells after 72 hrs by MTS assay; type: functional, cell-based; settings: MDA-MB-231, 72 h
[5] = test system: A549; test: Cytotoxicity against human A549 cells after 72 hrs by MTS assay; type: functional, cell-based; settings: A549, 72 h
[6] = Cytotoxicity against human H1299 cells after 72 hrs by MTS assay; type: functional, cell-based; settings: NCI-H1299, 72 h
[7] = test system: HT-29; test: Cytotoxicity against human HT-29 cells after 72 hrs by MTS assay; type: functional, cell-based; settings: HT-29, 72 h
[8] = target: Ubiquitin-conjugating enzyme E2 B (Homo sapiens) (UniProt P63146); test: Inhibition of human recombinant Rad6B assessed as suppression of Rad6B conjugation to ubiquitin at 25 nM pre-incubated for 1 hr by Western blot analysis
Sequence of Ubiquitin-conjugating enzyme E2 B (Homo sapiens) (P63146 whole entry): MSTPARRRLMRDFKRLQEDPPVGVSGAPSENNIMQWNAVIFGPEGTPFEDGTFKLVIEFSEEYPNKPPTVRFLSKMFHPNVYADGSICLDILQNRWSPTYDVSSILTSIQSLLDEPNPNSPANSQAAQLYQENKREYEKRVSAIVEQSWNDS

[9] = target: Ubiquitin-conjugating enzyme E2 B (Homo sapiens) (UniProt P63146); test: Inhibition of human recombinant Rad6B assessed as suppression of H2A substrate ubiquitination at 25 nM pre-incubated for 1 hr before H2A addition by Western blot analysis

Cc1ccc(Nc2nc(N)nc(C(=O)NN)n2)cc1
IC50 [1]: 60 µM | IC50 [2]: 5.5 µM | IC50 [3]: 16 µM | IC50 [4]: 12.7 µM | IC50 [5]: 9.3 µM | IC50 [6]: 40 µM | IC50 [7]: 4.5 µM | inhibition [8]: Active

COc1ccc(Nc2nc(Nc3ccc(OC)cc3)nc(C(=O)NNc3ccccc3)n2)cc1
IC50 [1]: 12 µM | IC50 [2]: 6.3 µM | IC50 [3]: 7.2 µM | IC50 [4]: 4.2 µM | IC50 [5]: 10.8 µM | IC50 [6]: 5 µM | IC50 [7]: 5.8 µM | inhibition [8]: Active | inhibition [9]: Active

Cc1ccc(Nc2nc(Nc3ccc(C)cc3)nc(C(=O)NNc3ccccc3)n2)cc1
IC50 [1]: 5 µM | IC50 [2]: 3.6 µM | IC50 [3]: 4.2 µM | IC50 [4]: 3.5 µM | IC50 [5]: 11.6 µM | IC50 [6]: 22 µM | IC50 [7]: 5.2 µM | inhibition [8]: Active | inhibition [9]: Active

NNC(=O)c1nc(N)nc(Nc2ccc(Cl)cc2)n1
IC50 [1]: 85 µM | IC50 [2]: 36.6 µM | IC50 [3]: 8.8 µM | IC50 [4]: 24.6 µM | IC50 [5]: 7.5 µM | IC50 [6]: 30 µM | IC50 [7]: 4.6 µM | inhibition [8]: Active

COc1ccccc1Nc1nc(Nc2ccccc2OC)nc(C(=O)NNc2ccccc2)n1
IC50 [1]: 10 µM | IC50 [2]: 5 µM | IC50 [3]: 7.2 µM | IC50 [4]: 3.9 µM | IC50 [5]: 6.9 µM | IC50 [6]: 26 µM | IC50 [7]: 8.9 µM | inhibition [8]: Active

O=C(NNc1ccccc1)c1nc(Nc2ccc(Cl)cc2)nc(Nc2ccc(Cl)cc2)n1
IC50 [1]: 60 µM | IC50 [2]: 8.2 µM | IC50 [3]: 4.2 µM | IC50 [4]: 3.5 µM | IC50 [5]: 7.8 µM | IC50 [6]: 15 µM | IC50 [7]: 4.1 µM | inhibition [8]: Active | inhibition [9]: Active

COc1ccccc1Nc1nc(N)nc(C(=O)NN)n1
IC50 [1]: 90 µM | IC50 [2]: 5.6 µM | IC50 [3]: 11.8 µM | IC50 [4]: 15.7 µM | IC50 [5]: 7.5 µM | IC50 [6]: 50 µM | IC50 [7]: 8.6 µM | inhibition [8]: Active

COc1ccc(Nc2nc(N)nc(C(=O)NN)n2)cc1
IC50 [1]: 80 µM | IC50 [2]: 14.7 µM | IC50 [3]: 6.2 µM | IC50 [4]: 7.6 µM | IC50 [5]: 5.2 µM | IC50 [6]: 65 µM | IC50 [7]: 5.4 µM | inhibition [8]: Active

NNC(=O)c1nc(N)nc(Nc2ccccc2)n1
IC50 [1]: 75 µM | IC50 [2]: 7.3 µM | IC50 [3]: 5.9 µM | IC50 [4]: 2.6 µM | IC50 [5]: 7.8 µM | IC50 [6]: 65 µM | IC50 [7]: 3.3 µM | inhibition [8]: Active

O=C(NNc1ccccc1)c1nc(Nc2ccccc2)nc(Nc2ccccc2)n1
IC50 [1]: 8 µM | IC50 [2]: 7.1 µM | IC50 [3]: 6 µM | IC50 [4]: 2.5 µM | IC50 [5]: 14.6 µM | IC50 [6]: 11 µM | IC50 [7]: 9.5 µM | inhibition [8]: Active | inhibition [9]: Active

Nc1nc(COC(=O)c2ccc([N+](=O)[O-])cc2)nc(Nc2ccccc2)n1
IC50 [1]: 60 µM | IC50 [2]: 7.8 µM | IC50 [3]: 5 µM | IC50 [4]: 4.6 µM | IC50 [5]: 7.2 µM | IC50 [6]: 45 µM | IC50 [7]: 8.3 µM | inhibition [8]: Active | inhibition [9]: Active

Reference: ChEMBL document CHEMBL3784990, “Synthesis and in vitro anticancer evaluation of some 4,6-diamino-1,3,5-triazine-2-carbohydrazides as Rad6 ubiquitin conjugating enzyme inhibitors” (Bioorg Med Chem Lett, 2016)
